Data from patent publication US20250197799A1, “CELLS DERIVED FROM POLYPEDILUM VANDERPLANKI AND ODOR SENSOR EQUIPPED THEREWITH” (University of Maryland, College Park, priority 2022, published 2025).
“Also recorded” adds a separate entry of the source.

How the values were obtained:
[1] = molecular target: T1, Orco and Or47a (Drosophila melanogaster, UniProt P81921+Q9VNB5); assay: Fluorescence on stimulation of Pv11 transient expression strain (GCaMP6f, Orco, Or47a); assay type: cell-based; conditions: fluorescence microscope, DMSO negative control
T1 construct: expressed in transfected cells; host or cells: Pv11 cells (Polypedilum vanderplanki)
T1 sequence (Q9VNB5 1-486): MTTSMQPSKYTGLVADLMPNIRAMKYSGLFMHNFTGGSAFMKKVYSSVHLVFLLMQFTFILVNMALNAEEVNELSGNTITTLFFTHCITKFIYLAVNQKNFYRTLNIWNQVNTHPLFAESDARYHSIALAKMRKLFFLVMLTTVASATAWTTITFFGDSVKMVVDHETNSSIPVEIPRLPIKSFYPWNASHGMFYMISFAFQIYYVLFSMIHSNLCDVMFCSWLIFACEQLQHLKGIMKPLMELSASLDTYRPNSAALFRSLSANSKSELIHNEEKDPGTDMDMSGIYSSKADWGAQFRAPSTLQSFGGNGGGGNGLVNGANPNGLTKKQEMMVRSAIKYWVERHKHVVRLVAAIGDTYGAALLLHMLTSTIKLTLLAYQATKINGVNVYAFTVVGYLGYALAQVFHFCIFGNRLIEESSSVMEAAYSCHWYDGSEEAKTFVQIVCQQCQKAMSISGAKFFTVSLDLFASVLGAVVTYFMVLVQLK
T1 sequence (P81921 1-385): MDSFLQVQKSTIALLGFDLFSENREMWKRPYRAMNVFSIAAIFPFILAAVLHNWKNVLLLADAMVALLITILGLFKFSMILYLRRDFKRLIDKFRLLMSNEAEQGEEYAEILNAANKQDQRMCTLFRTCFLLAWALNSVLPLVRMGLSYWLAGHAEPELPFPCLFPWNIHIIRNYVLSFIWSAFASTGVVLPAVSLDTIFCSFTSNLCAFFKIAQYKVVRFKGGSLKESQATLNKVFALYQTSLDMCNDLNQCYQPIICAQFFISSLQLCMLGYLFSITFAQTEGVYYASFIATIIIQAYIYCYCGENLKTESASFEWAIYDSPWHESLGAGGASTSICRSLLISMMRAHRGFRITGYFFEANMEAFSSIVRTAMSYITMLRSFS
Text: 1. Transient expression strain preparation. GCaMP6f cDNA was amplified by PCR in a conventional manner, and a pPv121-GcaMP6f vector was produced by inserting the amplified DNA sequence (SEQ ID NO: 2) encoding GcaMP6f downstream of a 121 promoter of a pPv121-MCS vector (Tokumoto et. Al., doi: https://doi. Org/10.1101/2020.05.29.123570 “Development of a Tet-On inducible expression system for the anhydrobiotic cell line, Pv11”). Similarly, the cDNA of Orco derived from Drosophila melanogaster was amplified by PCR by a conventional method, and a pPv121-Orco vector was generated by inserting the amplified Orco-encoding DNA sequence (SEQ ID NO:3) downstream of the 121 promoter of the pPv121-MCS vector. […]
The resulting pPv121-GcaMP6f vector, pPv121-Orco vector, and pPv121-Or47a vector were simultaneously transfected to Pv11 cells (see Miyata Y., et. Al, Scientific Reports, 9 (1), 7004. (2019)), and a Pv11 transient expression strain was produced that transiently expressed the GaMP6f, Orco, and Or47a proteins. If the membrane proteins Orco and Or47a were expressed and GcaMP6f was expressed in the cytoplasm, then by stimulating Pv11 transient expression strains with Orco or Or47a agonists or ligands, calcium ion influxed into the cells, and the fluorescence of GcaMP6f was observed. […]

[2] = molecular target: T2, Orco-Or47a (Drosophila melanogaster, UniProt P81921+Q9VNB5); assay: Exogenous membrane protein function before drying and after drying-rehydration, Orco-Or47a stable expression cell line; assay type: cell-based; design: remnant residues; expressed in transfected cells; host or cells: Pv11 cells (Polypedilum vanderplanki), CRIS-PITCh knock-in at the Pv.00443 locus downstream of the 121 promoter, Zeocin selection and single-cell sorting
T2 sequence (Q9VNB5 1-486): T1 sequence (Q9VNB5 1-486)
T2 sequence (P81921 1-385): T1 sequence (P81921 1-385)
Method: To assess the drought tolerance of the cell lines, the cells were dried according to the following protocol. 4×10^7 Pv11-GCaMP6f stable expression cell lines were centrifuged at 700 g for 3 minutes and the supernatant removed. The precipitated cells were suspended in a 600 mM trehalose mix of 600 mM trehalose and IPL-41 medium at a ratio of 9:1, transferred to a 2 ml flask, and incubated at 25° C. for 48 hours. After 48 hours, the obtained cells were centrifuged at 700 g for 3 minutes and the supernatant was removed. The sedimented cells were suspended in 400 μl of 600 mM trebalose mix, and 40 μl were dropped onto a 35 mm dish. The 35 mm dish was dried for 10 days under conditions of 25° C. and humidity of 10% or less.
6. Assessment of exogenous membrane protein function after drying-rehydration. Using the Orco stable expression cell line and Orco-Or47a stable expression cell line, in order to assess the function of exogenous membrane proteins before drying and after 1 hour of rehydration after drying, fluorescence intensity generated in response to stimulation with VUAA1 (Orco agonist) or pentyl acetate (ligand of Or47a) was measured in the same manner as in 3.2 above.
The fluorescence intensity was digitized from the photograph, and ΔF/F was calculated according to the following formula:
Where the summation Σi=1^n is over the n cells in the image, Fi,after means the fluorescence intensity of the cell i after adding the ligand solution, and Fi,0 means the fluorescence intensity of the cell i before adding the ligand solution.
Specifically, a fluorescence image was taken under the condition in which the excitation wavelength/fluorescence wavelength was 488 nm/525 nm. In the fluorescence intensity quantification, the cells were identified in the photographed image, and the fluorescence intensity (F) was measured for each time. The initial values of fluorescence intensity (F0) were subtracted from the measured fluorescence intensity at each time to obtain the amount of change in fluorescence (ΔF), which was then normalized by dividing by the initial value of fluorescence intensity (F0) to obtain (Δ F/F0). A number of cells n were selected from the captured image, ΔF/F0 were produced for each, and the average value (including standard deviation, SD) of the results was graphed. For example, 25 cells were selected from the captured image, ΔF/F0 for each were produced, and the averaged results (including SD) were graphed. […] The Orco-Or47a stable expression cell line before drying responded to the Orco agonist (VUAA1) and the specific ligand of Or47a, pentyl acetate.

[3] = 1 hour after drying and rehydration, compared to DMSO control

Compound | fluorescence of GCaMP6f on stimulation [1] | response as change in fluorescence intensity (ΔF/F0) [2, 3] | response as change in fluorescence intensity (ΔF/F0) ([2]; before drying)
CCCCCOC(C)=O [pentyl acetate] | fluorescence was observed | significant difference in responsiveness; also recorded: fluorescence was observed | responded
CCc1ccc(NC(=O)CSc2nnc(-c3cccnc3)n2CC)cc1 [VUAA1, N-(4-ethylphenyl)-2-{[4-ethyl-5-(pyridin-3-yl)-4H-1,2,4-triazol-3-yl]sulfanyl}acetamide] | fluorescence was observed | significant difference in responsiveness; also recorded: fluorescence was observed | responded
